Active and inactive are the calls of the source. The rule behind the calls is not given here.
How the values were obtained:
JeKo-1 [1] = test: Induction of apoptosis in human JeKo-1 cells assessed as late apoptotic cells at 0.25 uM incubated for 48 hrs by Annexin-V/FITC and PI staining based flow cytometric analysis (reference value: 3.66%); assay type: functional
[2] = AUC (0 to t) in ICR mouse at 1 mg/kg, iv measured after 24 hrs by LC-MS/MS analysis; assay type: ADME, organism-based; conditions: in vivo
JeKo-1 [3] = test: Antiproliferative activity against human JeKo-1 cells incubated for 48 hrs by resazurin dye based fluorescence micro plate reader analysis; assay type: functional, cell-based; conditions: JeKo-1, 48 h
Histone deacetylase 11 = Histone deacetylase 11 (Homo sapiens, UniProt Q96DB2); test: Inhibition of HDAC11 (unknown origin) using Boc-Lys(acetyl)-AMC as substrate preincubated for 1 hrs followed by substrate addition and measured after 2 hrs by spectrophotometer based fluorometric assay
JeKo-1 [4] = test: Effect on total AKT protein level in human JeKo-1 cells at 0.25 uM incubated for 24 hrs by Western blot analysis; assay type: functional, cell-based
JeKo-1 [5] = test: Induction of apoptosis in human JeKo-1 cells assessed as late apoptotic cells at 0.5 uM incubated for 48 hrs by Annexin-V/FITC and PI staining based flow cytometric analysis (reference value: 3.66%); assay type: functional
CYP1A2 = CYP1A2 (Homo sapiens, UniProt P05177); test: Inhibition of CYP1A2 in human liver microsomes using phenacetin as substrate at 10 uM in presence of NADPH regenerating system by LC-MS/MS analysis relative to control; assay type: ADME, Microsome; conditions: probe phenacetin
[6] = Stability in human liver microsomes assessed as compound remaining at […] preincubated for 5 mins followed by NADPH addition and measured immediately by LC-MS/MS analysis; assay type: ADME, Microsome; conditions: read-out: Stability
hERG = hERG (Homo sapiens, UniProt Q12809); test: Inhibition of hERG transfected in CHO cells at 30 uM by manual patch-clamp assay relative to control; assay type: toxicity, cell-based; conditions: CHO cells transfected with hERG
JeKo-1 [7] = test: Induction of apoptosis in human JeKo-1 cells assessed as early apoptotic cells at 1 uM incubated for 48 hrs by Annexin-V/FITC and PI staining based flow cytometric analysis (reference value: […]); assay type: functional
JeKo-1 [8] = test: Induction of apoptosis in human JeKo-1 cells assessed as necrotic cells at 0.5 uM incubated for 48 hrs by Annexin-V/FITC and PI staining based flow cytometric analysis (reference value: 1.05%); assay type: functional
Histone deacetylase 8 = Histone deacetylase 8 (Homo sapiens, UniProt Q9BY41); test: Inhibition of HDAC8 (unknown origin) using Boc-Lys(acetyl)-AMC as substrate preincubated for 1 hrs followed by substrate addition and measured after 2 hrs by spectrophotometer based fluorometric assay
[9] = target: Phosphatidylinositol 4,5-bisphosphate 3-kinase catalytic subunit gamma isoform (Homo sapiens, UniProt P48736); test: Inhibition of PI3Kgamma (unknown origin) using PIP2 as substrate incubated for 1 hrs in presence of ATP by ADP-Glo kinase assay
MM1.S = test: Antiproliferative activity against human MM1.S cells incubated for 48 hrs by resazurin dye based fluorescence micro plate reader analysis; assay type: functional, cell-based
JeKo-1 [10] = test: Induction of apoptosis in human JeKo-1 cells assessed as early apoptotic cells at 0.25 uM incubated for 48 hrs by Annexin-V/FITC and PI staining based flow cytometric analysis (reference value: […]); assay type: functional
[11] = Stability in mouse liver microsomes assessed as compound remaining at […] preincubated for 5 mins followed by NADPH addition and measured after 15 mins by LC-MS/MS analysis; assay type: ADME, Microsome; conditions: time 20 min, read-out: Stability
Histone deacetylase 5 = Histone deacetylase 5 (Homo sapiens, UniProt Q9UQL6); test: Inhibition of HDAC5 (unknown origin) using Boc-Lys(acetyl)-AMC as substrate preincubated for 1 hrs followed by substrate addition and measured after 2 hrs by spectrophotometer based fluorometric assay
Histone deacetylase 7 = Histone deacetylase 7 (Homo sapiens, UniProt Q8WUI4); test: Inhibition of HDAC7 (unknown origin) using Boc-Lys(acetyl)-AMC as substrate preincubated for 1 hrs followed by substrate addition and measured after 2 hrs by spectrophotometer based fluorometric assay
[12] = Stability in human liver microsomes assessed as compound remaining at […] preincubated for 5 mins followed by NADPH addition and measured after 30 mins by LC-MS/MS analysis; assay type: ADME, Microsome; conditions: time 35 min, read-out: Stability
JeKo-1 [13] = test: Inhibition of class 1 HDAC in human JeKo-1 cells assessed as increase in histone H3 acetylation incubated for 24 hrs by Western blot analysis; assay type: cell-based; conditions: dose 0.25-1 µM
JeKo-1 [14] = test: Induction of apoptosis in human JeKo-1 cells assessed as necrotic cells at 1 uM incubated for 48 hrs by Annexin-V/FITC and PI staining based flow cytometric analysis (reference value: 1.05%); assay type: functional
[15] = MRT (0 to infinity) in ICR mouse at 1 mg/kg, iv measured after 24 hrs by LC-MS/MS analysis; assay type: ADME, organism-based; conditions: in vivo
Histone deacetylase 2 = Histone deacetylase 2 (Homo sapiens, UniProt Q92769); test: Inhibition of HDAC2 (unknown origin) using Boc-Lys(acetyl)-AMC as substrate preincubated for 1 hrs followed by substrate addition and measured after 2 hrs by spectrophotometer based fluorometric assay
JeKo-1 [16] = test: Induction of apoptosis in human JeKo-1 cells assessed as viable cells at 0.25 uM incubated for 48 hrs by Annexin-V/FITC and PI staining based flow cytometric analysis (reference value: 94.1%); assay type: functional; conditions: read-out: Activity
MDA-MB-231 = test: Antiproliferative activity against human MDA-MB-231 cells incubated for 48 hrs by resazurin dye based fluorescence micro plate reader analysis; assay type: functional, cell-based; conditions: MDA-MB-231, 48 h
CYP2C19 = CYP2C19 (Homo sapiens, UniProt P33261); test: Inhibition of CYP2C19 in human liver microsomes using S-mephenytoin as substrate at 10 uM in presence of NADPH regenerating system by LC-MS/MS analysis relative to control; assay type: ADME, Microsome; conditions: probe S-mephenytoin
CYP3A4 = CYP3A4 (Homo sapiens, UniProt P08684); test: Inhibition of CYP3A4 in human liver microsomes using bufuralol as substrate at 10 uM in presence of NADPH regenerating system by LC-MS/MS analysis relative to control; assay type: ADME, Microsome; conditions: probe bufuralol
CYP2B6 = CYP2B6 (Homo sapiens, UniProt P20813); test: Inhibition of CYP2B6 in human liver microsomes using bupropion as substrate at 10 uM in presence of NADPH regenerating system by LC-MS/MS analysis relative to control; assay type: ADME, Microsome; conditions: probe bupropion
JeKo-1 [17] = test: Induction of apoptosis in human JeKo-1 cells assessed as necrotic cells at 0.25 uM incubated for 48 hrs by Annexin-V/FITC and PI staining based flow cytometric analysis (reference value: 1.05%); assay type: functional
JeKo-1 [18] = test: Potency index, ratio of CI994 IC50 to test compound IC50 for antiproliferative activity against human JeKo-1 cells incubated for 48 hrs by resazurin based fluorescence microplate reader analysis; assay type: functional
CYP2D6 = CYP2D6 (Homo sapiens, UniProt P10635); test: Inhibition of CYP2D6 in human liver microsomes using bufuralol as substrate at 10 uM in presence of NADPH regenerating system by LC-MS/MS analysis relative to control; assay type: ADME, Microsome; conditions: probe bufuralol
Sequence of CYP2D6 (P10635 whole entry): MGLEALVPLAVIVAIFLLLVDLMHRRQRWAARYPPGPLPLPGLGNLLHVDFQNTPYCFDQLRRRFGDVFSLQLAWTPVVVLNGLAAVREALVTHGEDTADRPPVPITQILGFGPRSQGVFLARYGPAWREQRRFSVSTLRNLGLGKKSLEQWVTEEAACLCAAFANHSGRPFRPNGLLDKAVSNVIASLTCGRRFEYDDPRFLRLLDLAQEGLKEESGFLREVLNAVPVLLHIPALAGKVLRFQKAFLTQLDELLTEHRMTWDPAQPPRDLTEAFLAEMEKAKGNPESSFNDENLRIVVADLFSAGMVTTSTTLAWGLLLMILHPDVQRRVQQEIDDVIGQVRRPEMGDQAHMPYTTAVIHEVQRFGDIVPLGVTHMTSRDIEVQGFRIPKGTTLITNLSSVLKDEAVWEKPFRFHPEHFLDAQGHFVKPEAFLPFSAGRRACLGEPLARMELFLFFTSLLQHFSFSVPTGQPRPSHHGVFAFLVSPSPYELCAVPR

Sequence of CYP2B6 (P20813 whole entry): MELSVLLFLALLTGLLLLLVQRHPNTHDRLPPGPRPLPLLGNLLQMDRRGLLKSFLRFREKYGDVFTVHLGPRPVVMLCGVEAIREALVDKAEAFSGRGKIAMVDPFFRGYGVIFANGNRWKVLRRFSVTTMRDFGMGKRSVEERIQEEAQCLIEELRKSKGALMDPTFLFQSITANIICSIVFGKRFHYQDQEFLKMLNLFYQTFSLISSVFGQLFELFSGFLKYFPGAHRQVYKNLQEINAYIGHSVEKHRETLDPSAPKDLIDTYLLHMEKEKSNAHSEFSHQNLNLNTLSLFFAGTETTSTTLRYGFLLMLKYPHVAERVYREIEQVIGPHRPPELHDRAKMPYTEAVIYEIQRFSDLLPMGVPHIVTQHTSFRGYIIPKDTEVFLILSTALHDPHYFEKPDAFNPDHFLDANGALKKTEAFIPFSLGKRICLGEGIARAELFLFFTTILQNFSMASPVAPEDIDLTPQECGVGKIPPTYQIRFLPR
Sequence of Histone deacetylase 2 (Q92769 whole entry): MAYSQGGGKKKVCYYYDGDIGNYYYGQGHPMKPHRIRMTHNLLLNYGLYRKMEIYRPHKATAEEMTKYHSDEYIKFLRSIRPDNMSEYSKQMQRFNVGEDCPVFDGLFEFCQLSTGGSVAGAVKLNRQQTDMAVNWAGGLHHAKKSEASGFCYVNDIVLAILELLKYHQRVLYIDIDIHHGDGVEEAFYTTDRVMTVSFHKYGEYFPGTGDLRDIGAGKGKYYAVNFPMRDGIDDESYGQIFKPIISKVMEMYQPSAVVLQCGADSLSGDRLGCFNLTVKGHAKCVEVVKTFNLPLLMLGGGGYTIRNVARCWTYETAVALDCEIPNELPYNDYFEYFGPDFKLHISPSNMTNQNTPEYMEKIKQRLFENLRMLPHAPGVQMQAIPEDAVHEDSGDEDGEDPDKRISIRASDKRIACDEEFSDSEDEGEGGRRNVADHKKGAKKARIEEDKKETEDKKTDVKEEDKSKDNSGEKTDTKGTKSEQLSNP
Sequence of Histone deacetylase 11 (Q96DB2 whole entry): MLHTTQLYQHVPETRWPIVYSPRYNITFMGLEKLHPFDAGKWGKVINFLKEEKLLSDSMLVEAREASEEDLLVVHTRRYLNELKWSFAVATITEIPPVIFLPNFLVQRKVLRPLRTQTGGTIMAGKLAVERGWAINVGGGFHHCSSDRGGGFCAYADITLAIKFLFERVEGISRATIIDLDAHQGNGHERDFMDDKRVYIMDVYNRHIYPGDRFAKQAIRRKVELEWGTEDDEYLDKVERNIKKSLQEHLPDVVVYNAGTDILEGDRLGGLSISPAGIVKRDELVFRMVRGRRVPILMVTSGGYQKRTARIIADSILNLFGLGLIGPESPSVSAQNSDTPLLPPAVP
Sequence of CYP1A2 (P05177 whole entry): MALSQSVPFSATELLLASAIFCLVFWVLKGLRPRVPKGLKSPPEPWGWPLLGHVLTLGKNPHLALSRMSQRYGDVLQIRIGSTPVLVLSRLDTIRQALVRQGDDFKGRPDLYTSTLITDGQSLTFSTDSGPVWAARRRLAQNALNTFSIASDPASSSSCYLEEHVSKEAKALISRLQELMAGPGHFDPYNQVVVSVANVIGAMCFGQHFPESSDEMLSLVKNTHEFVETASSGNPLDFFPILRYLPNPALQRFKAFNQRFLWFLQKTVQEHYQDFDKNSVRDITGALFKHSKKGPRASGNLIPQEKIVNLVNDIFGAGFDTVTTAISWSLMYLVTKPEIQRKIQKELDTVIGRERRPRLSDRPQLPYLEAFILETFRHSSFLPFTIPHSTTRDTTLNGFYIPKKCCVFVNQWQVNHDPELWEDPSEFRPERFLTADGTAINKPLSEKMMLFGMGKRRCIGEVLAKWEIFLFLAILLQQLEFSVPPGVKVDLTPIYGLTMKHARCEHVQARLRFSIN
Sequence of CYP2C19 (P33261 whole entry): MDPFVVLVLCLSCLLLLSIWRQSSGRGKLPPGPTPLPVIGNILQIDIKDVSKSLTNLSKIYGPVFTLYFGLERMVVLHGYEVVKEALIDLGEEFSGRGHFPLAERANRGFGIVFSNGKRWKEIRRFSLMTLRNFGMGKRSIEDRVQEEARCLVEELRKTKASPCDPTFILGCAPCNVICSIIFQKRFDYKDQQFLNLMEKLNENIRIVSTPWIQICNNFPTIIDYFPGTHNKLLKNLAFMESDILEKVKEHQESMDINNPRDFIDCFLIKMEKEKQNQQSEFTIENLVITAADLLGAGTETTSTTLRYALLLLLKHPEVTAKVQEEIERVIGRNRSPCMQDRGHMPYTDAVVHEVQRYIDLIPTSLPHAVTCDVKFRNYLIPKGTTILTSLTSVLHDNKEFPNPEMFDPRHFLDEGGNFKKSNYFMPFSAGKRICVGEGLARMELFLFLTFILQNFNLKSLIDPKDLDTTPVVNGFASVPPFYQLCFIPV
Sequence of Histone deacetylase 5 (Q9UQL6 whole entry): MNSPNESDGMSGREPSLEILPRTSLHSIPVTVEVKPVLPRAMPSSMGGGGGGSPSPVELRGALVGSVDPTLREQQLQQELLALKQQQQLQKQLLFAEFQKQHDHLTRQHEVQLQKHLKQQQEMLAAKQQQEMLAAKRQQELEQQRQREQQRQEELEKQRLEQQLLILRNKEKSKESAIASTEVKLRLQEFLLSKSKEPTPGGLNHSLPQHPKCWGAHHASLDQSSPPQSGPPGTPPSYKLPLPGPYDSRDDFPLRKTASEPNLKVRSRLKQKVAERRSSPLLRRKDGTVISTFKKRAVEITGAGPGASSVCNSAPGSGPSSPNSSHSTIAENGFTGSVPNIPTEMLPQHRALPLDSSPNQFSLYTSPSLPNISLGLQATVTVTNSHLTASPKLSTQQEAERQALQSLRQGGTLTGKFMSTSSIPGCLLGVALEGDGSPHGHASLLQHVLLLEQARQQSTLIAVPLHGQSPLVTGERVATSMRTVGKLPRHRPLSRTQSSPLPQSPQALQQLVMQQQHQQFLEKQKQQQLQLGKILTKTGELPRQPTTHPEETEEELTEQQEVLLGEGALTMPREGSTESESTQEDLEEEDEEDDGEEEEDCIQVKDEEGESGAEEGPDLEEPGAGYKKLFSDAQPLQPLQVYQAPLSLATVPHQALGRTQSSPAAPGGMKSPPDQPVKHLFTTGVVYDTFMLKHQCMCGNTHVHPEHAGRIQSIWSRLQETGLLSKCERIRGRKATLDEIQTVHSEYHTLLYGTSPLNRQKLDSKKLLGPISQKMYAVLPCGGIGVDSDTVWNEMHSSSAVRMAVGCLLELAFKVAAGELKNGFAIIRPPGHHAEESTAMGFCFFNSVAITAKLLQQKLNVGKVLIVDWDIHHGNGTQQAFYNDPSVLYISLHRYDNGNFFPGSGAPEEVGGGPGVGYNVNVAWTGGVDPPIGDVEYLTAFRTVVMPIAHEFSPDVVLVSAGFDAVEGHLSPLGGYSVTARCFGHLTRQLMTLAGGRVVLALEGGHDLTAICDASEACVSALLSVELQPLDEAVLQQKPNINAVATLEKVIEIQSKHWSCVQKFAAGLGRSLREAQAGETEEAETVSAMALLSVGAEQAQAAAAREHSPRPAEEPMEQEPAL
Sequence of Histone deacetylase 7 (Q8WUI4 whole entry): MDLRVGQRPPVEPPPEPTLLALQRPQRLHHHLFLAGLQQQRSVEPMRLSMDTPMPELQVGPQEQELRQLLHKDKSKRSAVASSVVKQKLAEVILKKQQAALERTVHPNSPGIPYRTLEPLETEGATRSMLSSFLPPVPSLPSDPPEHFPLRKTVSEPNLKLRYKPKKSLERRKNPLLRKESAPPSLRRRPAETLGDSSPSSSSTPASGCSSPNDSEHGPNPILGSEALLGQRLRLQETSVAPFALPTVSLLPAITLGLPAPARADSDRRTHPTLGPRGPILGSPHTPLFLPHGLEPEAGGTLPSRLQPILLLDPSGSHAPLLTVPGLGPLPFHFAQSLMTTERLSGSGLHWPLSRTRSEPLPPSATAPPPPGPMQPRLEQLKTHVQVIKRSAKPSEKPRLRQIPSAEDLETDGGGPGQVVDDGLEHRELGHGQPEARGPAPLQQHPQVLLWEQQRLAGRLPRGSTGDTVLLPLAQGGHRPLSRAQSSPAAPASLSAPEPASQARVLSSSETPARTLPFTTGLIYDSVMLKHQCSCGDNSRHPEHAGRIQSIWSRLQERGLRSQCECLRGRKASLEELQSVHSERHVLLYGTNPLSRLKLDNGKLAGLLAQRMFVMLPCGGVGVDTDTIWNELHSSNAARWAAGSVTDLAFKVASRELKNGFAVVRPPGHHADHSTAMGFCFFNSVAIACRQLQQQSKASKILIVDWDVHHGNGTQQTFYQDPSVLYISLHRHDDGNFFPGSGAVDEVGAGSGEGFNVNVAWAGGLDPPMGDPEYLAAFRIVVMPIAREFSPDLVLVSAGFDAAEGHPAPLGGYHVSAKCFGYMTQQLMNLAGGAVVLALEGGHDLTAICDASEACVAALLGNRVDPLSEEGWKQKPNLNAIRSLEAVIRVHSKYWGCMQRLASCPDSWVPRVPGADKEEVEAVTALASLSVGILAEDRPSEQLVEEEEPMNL

COc1nc(-c2ccc(NC(=O)Nc3ccc(C(=O)NCCCCCC(=O)Nc4ccccc4N)cc3)cc2)nc(N2CCOCC2)n1
Activity (JeKo-1 [1]): 15.1%
AUC(0-t) at 24 h [2]: 2700 ng·h/mL
IC50 (JeKo-1 [3]): 500 nM
IC50 (Histone deacetylase 11): > 10000 nM
Activity (JeKo-1 [4]): inactive
Activity (JeKo-1 [5]): 32.9%
inhibition at 10 µM (CYP1A2): 2.52%
remaining at 0 min [6]: 100%
inhibition at 30 µM (hERG): 15.2%
Activity (JeKo-1 [7]): 26.1%
Activity (JeKo-1 [8]): 0.49%
IC50 (Histone deacetylase 8): > 10000 nM
IC50 [9]: 95.4 nM
IC50 (MM1.S): 2900 nM
Activity (JeKo-1 [10]): 5.73%
remaining at 0.25 h [11]: 65.8%
IC50 (Histone deacetylase 5): > 10000 nM
IC50 (Histone deacetylase 7): > 10000 nM
remaining at 0.5 h [12]: 46.9%
inhibition (JeKo-1 [13]): Dose-Dependent Effect
Activity (JeKo-1 [14]): 0.17%
MRT inf [15]: 2 h
IC50 (Histone deacetylase 2): 443 nM
viability at 0.25 µM (JeKo-1 [16]): 78.5%
IC50 (MDA-MB-231): 1500 nM
inhibition at 10 µM (CYP2C19): 14%
inhibition at 10 µM (CYP3A4): 32.5%
inhibition at 10 µM (CYP2B6): 35.6%
Activity (JeKo-1 [17]): 0.85%
Ratio IC50 (JeKo-1 [18]): 2
inhibition at 10 µM (CYP2D6): 48.8%

Reference: ChEMBL document CHEMBL5634161, “Discovery of benzamide-based PI3K/HDAC dual inhibitors with marked pro-apoptosis activity in lymphoma cells” (Eur J Med Chem, 2023)
